{"source": "paper PMC12102759", "about": "(Protein Science : A Publication of the Protein Society, 2025)", "data": [{"test_system": "G3BP1 NFT2", "type": "binding, human", "details": "library DMS-BM; bait G3BP1 NFT2; prey CAPRIN1; AQMQGPYNFIQDSM(averaged): mean of the two overlapping peptides over the shared positions", "values": [{"substance": "AQMQGPYNFIQDSM(averaged) P6W (AQMQGWYNFIQDSM)", "DMS position-specific score (PSSM value) per amino-acid substitution, averaged": 0.02305}, {"substance": "AQMQGPYNFIQDSM(averaged) I10P (AQMQGPYNFPQDSM)", "DMS position-specific score (PSSM value) per amino-acid substitution, averaged": 0}, {"substance": "AQMQGPYNFIQDSM(averaged) Q2D (ADMQGPYNFIQDSM)", "DMS position-specific score (PSSM value) per amino-acid substitution, averaged": 0.02749}, {"substance": "AQMQGPYNFIQDSM(averaged) A1I (IQMQGPYNFIQDSM)", "DMS position-specific score (PSSM value) per amino-acid substitution, averaged": 0.00266}, {"substance": "AQMQGPYNFIQDSM(averaged) Q11Q", "DMS position-specific score (PSSM value) per amino-acid substitution, averaged": 0.3738}, {"substance": "AQMQGPYNFIQDSM(averaged) M14R (AQMQGPYNFIQDSR)", "DMS position-specific score (PSSM value) per amino-acid substitution, averaged": 0.003652}, {"substance": "AQMQGPYNFIQDSM(averaged) Q4K (AQMKGPYNFIQDSM)", "DMS position-specific score (PSSM value) per amino-acid substitution, averaged": "4.484e-5"}, {"substance": "AQMQGPYNFIQDSM(averaged) D12V (AQMQGPYNFIQVSM)", "DMS position-specific score (PSSM value) per amino-acid substitution, averaged": 0.005056}, {"substance": "AQMQGPYNFIQDSM(averaged) Q2K (AKMQGPYNFIQDSM)", "DMS position-specific score (PSSM value) per amino-acid substitution, averaged": 0.006084}, {"substance": "AQMQGPYNFIQDSM(averaged) I10A (AQMQGPYNFAQDSM)", "DMS position-specific score (PSSM value) per amino-acid substitution, averaged": 0.0009869}, {"substance": "AQMQGPYNFIQDSM(averaged) Y7Q (AQMQGPQNFIQDSM)", "DMS position-specific score (PSSM value) per amino-acid substitution, averaged": 0.001996}, {"substance": "AQMQGPYNFIQDSM(averaged) N8N", "DMS position-specific score (PSSM value) per amino-acid substitution, averaged": 0.08785}, {"substance": "AQMQGPYNFIQDSM(averaged) D12S (AQMQGPYNFIQSSM)", "DMS position-specific score (PSSM value) per amino-acid substitution, averaged": 0.1749}, {"substance": "AQMQGPYNFIQDSM(averaged) F9F", "DMS position-specific score (PSSM value) per amino-acid substitution, averaged": 0.9484}, {"substance": "AQMQGPYNFIQDSM(averaged) M14P (AQMQGPYNFIQDSP)", "DMS position-specific score (PSSM value) per amino-acid substitution, averaged": 0}, {"substance": "AQMQGPYNFIQDSM(averaged) G5S (AQMQSPYNFIQDSM)", "DMS position-specific score (PSSM value) per amino-acid substitution, averaged": 0.1168}, {"substance": "AQMQGPYNFIQDSM(averaged) Q2I (AIMQGPYNFIQDSM)", "DMS position-specific score (PSSM value) per amino-acid substitution, averaged": 0.05266}, {"substance": "AQMQGPYNFIQDSM(averaged) Q4Y (AQMYGPYNFIQDSM)", "DMS position-specific score (PSSM value) per amino-acid substitution, averaged": 0.002959}, {"substance": "AQMQGPYNFIQDSM(averaged) A1V (VQMQGPYNFIQDSM)", "DMS position-specific score (PSSM value) per amino-acid substitution, averaged": 0.05956}, {"substance": "AQMQGPYNFIQDSM(averaged) F9Y (AQMQGPYNYIQDSM)", "DMS position-specific score (PSSM value) per amino-acid substitution, averaged": 0.002988}, {"substance": "AQMQGPYNFIQDSM(averaged) M3S (AQSQGPYNFIQDSM)", "DMS position-specific score (PSSM value) per amino-acid substitution, averaged": 0.002665}, {"substance": "AQMQGPYNFIQDSM(averaged) Y7M (AQMQGPMNFIQDSM)", "DMS position-specific score (PSSM value) per amino-acid substitution, averaged": 0.001832}, {"substance": "AQMQGPYNFIQDSM(averaged) Q2N (ANMQGPYNFIQDSM)", "DMS position-specific score (PSSM value) per amino-acid substitution, averaged": 0.006268}, {"substance": "AQMQGPYNFIQDSM(averaged) M3K (AQKQGPYNFIQDSM)", "DMS position-specific score (PSSM value) per amino-acid substitution, averaged": 0.006729}, {"substance": "AQMQGPYNFIQDSM(averaged) G5Y (AQMQYPYNFIQDSM)", "DMS position-specific score (PSSM value) per amino-acid substitution, averaged": 0.006993}, {"substance": "AQMQGPYNFIQDSM(averaged) D12N (AQMQGPYNFIQNSM)", "DMS position-specific score (PSSM value) per amino-acid substitution, averaged": 0.03064}, {"substance": "AQMQGPYNFIQDSM(averaged) Q2T (ATMQGPYNFIQDSM)", "DMS position-specific score (PSSM value) per amino-acid substitution, averaged": 0.03322}, {"substance": "AQMQGPYNFIQDSM(averaged) G5P (AQMQPPYNFIQDSM)", "DMS position-specific score (PSSM value) per amino-acid substitution, averaged": 0.02397}, {"substance": "AQMQGPYNFIQDSM(averaged) Q2E (AEMQGPYNFIQDSM)", "DMS position-specific score (PSSM value) per amino-acid substitution, averaged": 0.09844}, {"substance": "AQMQGPYNFIQDSM(averaged) F9Q (AQMQGPYNQIQDSM)", "DMS position-specific score (PSSM value) per amino-acid substitution, averaged": 0.01043}, {"substance": "AQMQGPYNFIQDSM(averaged) M3A (AQAQGPYNFIQDSM)", "DMS position-specific score (PSSM value) per amino-acid substitution, averaged": 0.007318}, {"substance": "AQMQGPYNFIQDSM(averaged) P6G (AQMQGGYNFIQDSM)", "DMS position-specific score (PSSM value) per amino-acid substitution, averaged": 0.006371}]}]}
